Data: ChEMBL document CHEMBL1201862, “PubChem BioAssay data set” (2004)
Values joined by “and” are separate entries in the source; they are usually repeats but may differ in a detail not shown here. Identical values can stand only once. Active and inactive are the calls of the source.

Tests used:
[1] = system: Streptococcus sp. 'group A'; assay: Streptococcus pyogenes SK(-)GAS viability under kanamycin – luminescence, BacTiterGlo, confirmation, counter-screen for streptokinase expression inhibitor project, dose response (AID 1900); format: functional, organism-based
Streptokinase A = molecular target: T1, Streptokinase A (Streptococcus pyogenes serotype M1, UniProt P10520); assay: viability-normalized secreted streptokinase activity reduction – plasminogen activation absorbance, OD405, dose response (AID 1914); format: functional, Streptococcus pyogenes M1 GAS;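 also: secreted streptokinase activity via plasminogen activation per viability signal from cell pellet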
T1 sequence (P10520 whole entry): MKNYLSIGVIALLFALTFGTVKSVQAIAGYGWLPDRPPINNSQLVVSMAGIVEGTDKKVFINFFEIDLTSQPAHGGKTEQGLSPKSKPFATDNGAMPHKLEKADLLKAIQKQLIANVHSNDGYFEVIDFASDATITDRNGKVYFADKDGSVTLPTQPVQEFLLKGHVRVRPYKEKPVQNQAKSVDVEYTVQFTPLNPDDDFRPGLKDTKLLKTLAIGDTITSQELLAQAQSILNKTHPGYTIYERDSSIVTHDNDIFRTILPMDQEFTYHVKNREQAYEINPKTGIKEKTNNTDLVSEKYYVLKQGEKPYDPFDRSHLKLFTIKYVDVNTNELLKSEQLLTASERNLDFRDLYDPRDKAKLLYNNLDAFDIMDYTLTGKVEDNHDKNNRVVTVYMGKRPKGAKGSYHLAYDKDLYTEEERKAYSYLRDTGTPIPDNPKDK

Streptococcus = assay: GAS UMAA2166 growth inhibition – luminescence, BacTiterGlo, counter-screen for streptokinase expression inhibitor project, dose response (AID 1915); format: functional, organism-based;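 also: potency for reduction of bacterial viability or growth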
X-box-binding protein 1 = X-box-binding protein 1 (Homo sapiens, UniProt P17861); format: functional, Cricetulus griseus;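 also: confirmatory dose-response counter-screen serving a CHOP assay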
[2] = Cytotoxicity screening for potential Inhibitors of Bacterial Capsule Biogenesis. [Related pubchem assays (depositor defined):AID488970]; format: functional
Nonstructural protein 1 = Nonstructural protein 1 (Influenza A virus, UniProt Q194T2); format: functional, Influenza A virus (A/California/07/2009(H1N1))
[3] = molecular target: Dual specificity tyrosine-phosphorylation-regulated kinase 1A (Rattus norvegicus, UniProt Q63470); format: biochemical, Homo sapiens
[4] = viability loss in HeLa cells – cytotoxicity control for MgcRacGAP inhibitor project, dose response (AID 624300); format: functional
[5] = molecular target: T2, Rac GTPase-activating protein 1 (Homo sapiens, UniProt Q9H0H5); assay: blockers of MgcRacGAP-driven Rac1 GTP hydrolysis – biochemical, ADP Hunter fluorescence, primary and confirmatory, confirmation (AID 624330); format: functional
T2 sequence (Q9H0H5 whole entry): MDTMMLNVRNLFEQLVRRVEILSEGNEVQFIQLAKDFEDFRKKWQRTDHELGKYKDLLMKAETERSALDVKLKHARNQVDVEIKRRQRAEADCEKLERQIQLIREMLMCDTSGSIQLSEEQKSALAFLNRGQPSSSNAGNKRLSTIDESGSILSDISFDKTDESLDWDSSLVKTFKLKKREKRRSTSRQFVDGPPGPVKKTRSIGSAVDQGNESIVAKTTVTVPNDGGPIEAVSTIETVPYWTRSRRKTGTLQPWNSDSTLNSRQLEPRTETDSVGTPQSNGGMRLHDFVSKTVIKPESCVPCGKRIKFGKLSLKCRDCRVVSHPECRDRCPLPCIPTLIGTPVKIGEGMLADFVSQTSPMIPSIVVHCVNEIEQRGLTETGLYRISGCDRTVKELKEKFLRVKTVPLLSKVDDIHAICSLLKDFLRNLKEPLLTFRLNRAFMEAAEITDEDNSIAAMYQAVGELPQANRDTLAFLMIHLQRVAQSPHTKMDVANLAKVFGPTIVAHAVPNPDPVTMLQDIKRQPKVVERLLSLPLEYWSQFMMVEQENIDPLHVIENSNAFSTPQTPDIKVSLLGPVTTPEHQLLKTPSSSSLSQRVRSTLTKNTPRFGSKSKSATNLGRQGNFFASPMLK

[6] = molecular target: T3, DNA repair protein RAD52 homolog (Homo sapiens, UniProt P43351); format: functional, biochemical
T3 sequence (P43351 whole entry): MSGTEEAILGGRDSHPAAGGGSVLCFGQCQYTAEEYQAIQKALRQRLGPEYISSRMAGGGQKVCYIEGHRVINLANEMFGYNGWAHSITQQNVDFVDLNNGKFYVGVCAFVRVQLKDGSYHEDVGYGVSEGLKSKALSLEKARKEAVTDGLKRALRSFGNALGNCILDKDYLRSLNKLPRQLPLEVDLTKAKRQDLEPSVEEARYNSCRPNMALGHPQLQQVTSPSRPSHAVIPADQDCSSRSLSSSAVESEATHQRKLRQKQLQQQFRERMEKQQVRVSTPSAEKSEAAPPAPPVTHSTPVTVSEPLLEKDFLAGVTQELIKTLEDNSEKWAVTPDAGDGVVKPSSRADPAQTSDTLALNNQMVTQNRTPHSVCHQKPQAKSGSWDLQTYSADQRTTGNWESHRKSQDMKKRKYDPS

[7] = molecular target: T4, Histone-lysine N-methyltransferase NSD2 (Homo sapiens, UniProt O96028); format: biochemical
T4 sequence (O96028 whole entry): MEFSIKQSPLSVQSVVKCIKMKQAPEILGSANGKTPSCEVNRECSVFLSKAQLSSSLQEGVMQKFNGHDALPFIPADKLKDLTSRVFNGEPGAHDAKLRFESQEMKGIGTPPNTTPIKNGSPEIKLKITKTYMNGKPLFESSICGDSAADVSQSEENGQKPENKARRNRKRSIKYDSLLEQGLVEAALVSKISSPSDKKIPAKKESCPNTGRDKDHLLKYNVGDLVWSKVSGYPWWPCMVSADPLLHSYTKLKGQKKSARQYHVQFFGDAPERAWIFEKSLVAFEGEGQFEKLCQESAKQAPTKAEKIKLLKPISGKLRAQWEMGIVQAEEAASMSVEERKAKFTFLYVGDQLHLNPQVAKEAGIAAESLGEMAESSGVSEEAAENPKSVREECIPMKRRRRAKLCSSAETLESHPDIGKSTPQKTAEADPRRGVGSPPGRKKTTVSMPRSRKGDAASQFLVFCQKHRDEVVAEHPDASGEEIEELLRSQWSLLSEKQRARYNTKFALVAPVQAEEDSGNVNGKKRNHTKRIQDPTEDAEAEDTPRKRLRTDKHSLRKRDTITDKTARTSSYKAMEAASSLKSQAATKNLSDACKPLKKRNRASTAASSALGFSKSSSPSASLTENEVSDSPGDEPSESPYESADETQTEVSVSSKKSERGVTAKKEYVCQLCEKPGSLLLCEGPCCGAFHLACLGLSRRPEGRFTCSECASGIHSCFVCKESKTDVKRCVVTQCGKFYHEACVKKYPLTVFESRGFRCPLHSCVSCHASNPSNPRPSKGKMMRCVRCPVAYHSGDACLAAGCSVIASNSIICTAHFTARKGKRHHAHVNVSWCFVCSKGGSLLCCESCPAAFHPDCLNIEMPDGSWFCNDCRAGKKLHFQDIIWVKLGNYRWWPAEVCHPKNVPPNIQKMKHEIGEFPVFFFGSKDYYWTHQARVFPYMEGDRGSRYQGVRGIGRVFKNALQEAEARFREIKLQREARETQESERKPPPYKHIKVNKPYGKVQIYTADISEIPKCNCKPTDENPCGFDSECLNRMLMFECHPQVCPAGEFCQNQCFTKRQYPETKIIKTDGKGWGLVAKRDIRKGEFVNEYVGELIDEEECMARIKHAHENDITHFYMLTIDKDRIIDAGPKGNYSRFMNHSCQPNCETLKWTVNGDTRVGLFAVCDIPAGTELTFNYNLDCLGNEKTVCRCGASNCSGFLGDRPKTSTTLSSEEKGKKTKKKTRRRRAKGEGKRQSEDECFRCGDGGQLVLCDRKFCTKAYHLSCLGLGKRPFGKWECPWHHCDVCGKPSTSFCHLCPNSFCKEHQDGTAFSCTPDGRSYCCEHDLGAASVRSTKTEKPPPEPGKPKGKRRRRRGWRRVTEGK

[8] = HGIII-sPLA2 enzyme inhibition potency – biochemical, QFRET, IC50, dose response (AID 743457);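 also: green fluorescence rise as the enzyme cleaves BODIPY PC-A2 in liposomes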
[9] = molecular target: Cyclin-dependent kinase 5/CDK5 activator 1 (Homo sapiens, UniProt Q00535); assay: blockade of human CDK5 activity – biochemical, cherry-picked samples, set 2, dose response (AID 504545)
[10] = blockers of HIV-1 envelope-mediated cell-cell fusion – cherry-pick, dose response (AID 652057); format: functional, cell-based
[11] = viability loss in CEM21 cells – cell-based, CellTiter-Glo luminescence, cherry-picked, cytotoxicity control for viral fusion inhibitor project, dose response (AID 652042); format: functional;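 also: potency for signal decrease meaning cytotoxicity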
[12] = blockers of HIV-1 ZM109 envelope-driven cell-cell fusion – HeLa effector, CEM target cells, luciferase, cherry-pick, dose response (AID 652058); format: functional, cell-based;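 also: luciferase signal from HIV-1 Env mediated cell-cell fusion of effector and target cells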
Paired box protein Pax-8 = Paired box protein Pax-8 (Homo sapiens, UniProt Q06710); assay: PAX8 transcriptional activity inhibition in RMG-I – RMG-I cells, luciferase, cherry-pick, dose response (AID 687027); format: functional, cell-based;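 also: luciferase reporter driven by Pax8 target thyroperoxidase promoter measured by SteadyGlo luminescence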
[13] = off-target signal loss in HeLa-CEM21 co-culture – HeLa F-luc CTL cells, cherry-picked, counter-screen for HIV-1 Env fusion inhibitor project, dose response (AID 652040); format: functional, cell-based;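 also: potency for signal decrease marking cytotoxic or nonspecific inhibition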
[14] = HIV-1 AD8 envelope cell-cell fusion blockers – cherry-pick, dose response (AID 652062); format: functional, cell-based;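 also: luciferase signal from cell-cell fusion driven by HIV-1 clade B AD8 Env; potency is for inhibitors of fusion seen as a drop in luminescence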
Genome polyprotein = Genome polyprotein (Hepatitis C virus, UniProt Q2Q167); assay: disruption of hepatitis C core self-association – biochemical, TR-FRET, dose response (AID 2159); parameters: species or system Hepacivirus hominis;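 also: blocks dimerization of HCV core protein measured by TR-FRET between tagged core106 pairs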
[15] = DNA intercalator displacement (FID) – biochemical, fluorescence, counter-screen for HCV NS3 helicase inhibitor project, dose response (AID 2172)
Bcl-2-like protein 10 = Bcl-2-like protein 10 (Homo sapiens, UniProt Q9HD36); assay: Bcl-B/TR3 peptide binding disruption – biochemical, fluorescence polarization, FITC-TR3 peptide, selectivity assay for Bfl-1 inhibitor project, primary screen (AID 748);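 also: fluorescence polarization from a fluorescein-labelled TR3 peptide binding purified Bcl-B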
NS3 = NS3 (Hepatitis C virus, UniProt A3EZJ3); assay: PubChem AID 2173; parameters: species or system Hepacivirus hominis
[16] = molecular target: Protein-tyrosine kinase 2-beta (Homo sapiens, UniProt Q14289);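 also: potency of inhibitors of PYK2 kinase phosphorylation of poly-GT substrate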
[17] = molecular target: T5, Tyrosine-protein phosphatase non-receptor type 7 (Homo sapiens, UniProt P35236); assay: redox-active compounds inhibiting HePTP phosphatase – biochemical, fluorescence, mechanism study (AID 2068); format: functional
T5 sequence (P35236 whole entry): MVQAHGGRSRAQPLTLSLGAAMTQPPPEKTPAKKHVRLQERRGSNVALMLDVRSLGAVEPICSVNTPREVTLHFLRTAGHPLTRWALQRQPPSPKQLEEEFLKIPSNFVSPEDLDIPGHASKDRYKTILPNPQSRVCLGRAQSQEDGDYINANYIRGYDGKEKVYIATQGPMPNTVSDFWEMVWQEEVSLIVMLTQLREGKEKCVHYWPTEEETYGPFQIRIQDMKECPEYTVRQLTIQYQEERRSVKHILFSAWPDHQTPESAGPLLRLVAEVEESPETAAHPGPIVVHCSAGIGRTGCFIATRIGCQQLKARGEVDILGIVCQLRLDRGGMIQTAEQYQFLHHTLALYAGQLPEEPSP

[18] = molecular target: Eukaryotic translation initiation factor 4E (Mus musculus, UniProt P63073); assay: blockers of eIF4G binding by eIF4E – biochemical, TR-FRET, dose response (AID 855); format: functional;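 also: potency for disrupting eIF4E binding to eIF4GI seen as loss of FRET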
Eukaryotic translation initiation factor 4E, sequence (P63073 whole entry): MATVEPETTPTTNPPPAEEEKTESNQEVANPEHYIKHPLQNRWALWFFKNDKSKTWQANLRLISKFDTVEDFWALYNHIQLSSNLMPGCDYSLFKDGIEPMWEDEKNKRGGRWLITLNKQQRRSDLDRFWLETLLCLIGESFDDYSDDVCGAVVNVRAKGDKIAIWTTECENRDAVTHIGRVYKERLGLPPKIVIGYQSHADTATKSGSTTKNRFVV

Bcl-2-like protein 10, sequence (Q9HD36 whole entry): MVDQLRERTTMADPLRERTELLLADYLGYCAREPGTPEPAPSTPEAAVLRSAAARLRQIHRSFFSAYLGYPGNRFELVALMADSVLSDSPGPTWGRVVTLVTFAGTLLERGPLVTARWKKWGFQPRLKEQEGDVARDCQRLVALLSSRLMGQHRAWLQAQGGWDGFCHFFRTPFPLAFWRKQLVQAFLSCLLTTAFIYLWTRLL
Cyclin-dependent kinase 5/CDK5 activator 1, sequence (Q00535 whole entry, the tested form may be a part): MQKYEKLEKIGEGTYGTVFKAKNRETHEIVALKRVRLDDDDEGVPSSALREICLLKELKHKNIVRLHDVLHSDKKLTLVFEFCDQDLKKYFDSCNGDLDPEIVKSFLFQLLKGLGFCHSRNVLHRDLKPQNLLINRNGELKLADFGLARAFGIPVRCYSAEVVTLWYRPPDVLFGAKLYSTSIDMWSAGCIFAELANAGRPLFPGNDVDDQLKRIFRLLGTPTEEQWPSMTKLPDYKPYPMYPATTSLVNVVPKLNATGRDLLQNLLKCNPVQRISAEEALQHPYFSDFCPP
Cyclin-dependent kinase 5/CDK5 activator 1, sequence (Q15078 whole entry, further chain, the tested form may be a part): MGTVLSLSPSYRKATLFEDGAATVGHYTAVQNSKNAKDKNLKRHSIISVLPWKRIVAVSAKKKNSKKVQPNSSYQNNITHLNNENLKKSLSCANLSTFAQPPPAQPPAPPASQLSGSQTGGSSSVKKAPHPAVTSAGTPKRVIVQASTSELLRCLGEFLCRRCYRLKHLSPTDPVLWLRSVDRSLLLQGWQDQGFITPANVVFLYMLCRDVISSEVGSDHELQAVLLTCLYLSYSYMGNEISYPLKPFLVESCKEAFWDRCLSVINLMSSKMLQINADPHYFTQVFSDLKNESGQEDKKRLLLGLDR
NS3, sequence (A3EZJ3 whole entry): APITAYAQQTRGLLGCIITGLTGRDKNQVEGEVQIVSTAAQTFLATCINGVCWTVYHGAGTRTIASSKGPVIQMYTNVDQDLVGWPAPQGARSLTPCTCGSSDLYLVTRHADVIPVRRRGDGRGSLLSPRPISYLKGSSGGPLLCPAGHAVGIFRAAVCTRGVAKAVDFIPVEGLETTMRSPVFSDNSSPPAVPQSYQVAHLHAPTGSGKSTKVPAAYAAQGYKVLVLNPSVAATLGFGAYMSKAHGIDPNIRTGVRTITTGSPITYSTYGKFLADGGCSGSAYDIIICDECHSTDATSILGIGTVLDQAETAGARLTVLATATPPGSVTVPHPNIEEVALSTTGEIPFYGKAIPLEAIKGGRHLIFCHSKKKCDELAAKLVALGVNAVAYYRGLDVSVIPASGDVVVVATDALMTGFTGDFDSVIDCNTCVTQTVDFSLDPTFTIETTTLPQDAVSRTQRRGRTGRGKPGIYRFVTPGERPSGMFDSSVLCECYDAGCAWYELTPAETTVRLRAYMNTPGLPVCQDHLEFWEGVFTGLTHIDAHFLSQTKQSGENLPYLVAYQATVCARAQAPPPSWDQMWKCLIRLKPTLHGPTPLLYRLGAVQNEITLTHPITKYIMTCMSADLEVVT
Paired box protein Pax-8, sequence (Q06710 whole entry, the tested form may be a part): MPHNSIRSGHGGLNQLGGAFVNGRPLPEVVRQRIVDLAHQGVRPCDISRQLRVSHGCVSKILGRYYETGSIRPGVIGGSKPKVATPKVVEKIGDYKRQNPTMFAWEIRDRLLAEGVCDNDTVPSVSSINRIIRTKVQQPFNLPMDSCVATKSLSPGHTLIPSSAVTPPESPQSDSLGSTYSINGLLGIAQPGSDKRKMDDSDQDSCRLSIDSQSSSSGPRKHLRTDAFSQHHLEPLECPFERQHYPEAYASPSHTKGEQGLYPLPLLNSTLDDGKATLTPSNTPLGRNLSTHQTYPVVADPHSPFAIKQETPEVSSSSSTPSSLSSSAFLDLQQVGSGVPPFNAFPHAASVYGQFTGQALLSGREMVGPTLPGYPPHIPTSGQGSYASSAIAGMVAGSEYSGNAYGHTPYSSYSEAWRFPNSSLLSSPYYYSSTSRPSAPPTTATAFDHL
Protein-tyrosine kinase 2-beta, sequence (Q14289 whole entry): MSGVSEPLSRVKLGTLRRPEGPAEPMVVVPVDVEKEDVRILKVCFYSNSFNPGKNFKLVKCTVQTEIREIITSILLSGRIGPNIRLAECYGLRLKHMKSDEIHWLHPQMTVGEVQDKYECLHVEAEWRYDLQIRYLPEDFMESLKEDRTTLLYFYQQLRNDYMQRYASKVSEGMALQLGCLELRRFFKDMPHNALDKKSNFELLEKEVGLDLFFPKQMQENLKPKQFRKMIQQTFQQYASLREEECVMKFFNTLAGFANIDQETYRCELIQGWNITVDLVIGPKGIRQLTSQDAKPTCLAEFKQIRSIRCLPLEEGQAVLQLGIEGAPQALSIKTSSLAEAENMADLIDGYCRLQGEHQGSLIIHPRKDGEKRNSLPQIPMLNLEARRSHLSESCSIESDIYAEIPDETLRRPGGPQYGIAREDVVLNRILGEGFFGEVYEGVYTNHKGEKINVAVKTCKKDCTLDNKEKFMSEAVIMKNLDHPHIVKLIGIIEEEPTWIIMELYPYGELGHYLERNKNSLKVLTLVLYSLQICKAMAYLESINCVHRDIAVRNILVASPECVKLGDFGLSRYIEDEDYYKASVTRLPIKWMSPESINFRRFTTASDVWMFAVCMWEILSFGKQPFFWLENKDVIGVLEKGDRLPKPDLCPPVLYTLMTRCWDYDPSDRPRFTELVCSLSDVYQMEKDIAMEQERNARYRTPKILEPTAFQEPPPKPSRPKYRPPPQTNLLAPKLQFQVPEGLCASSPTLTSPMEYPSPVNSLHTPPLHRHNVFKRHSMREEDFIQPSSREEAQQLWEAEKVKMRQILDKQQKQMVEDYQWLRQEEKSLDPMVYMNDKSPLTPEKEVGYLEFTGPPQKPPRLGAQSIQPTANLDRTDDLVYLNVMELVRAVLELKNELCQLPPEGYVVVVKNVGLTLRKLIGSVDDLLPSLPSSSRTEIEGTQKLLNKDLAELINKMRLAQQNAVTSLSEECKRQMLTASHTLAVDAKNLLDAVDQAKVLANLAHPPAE
Genome polyprotein, sequence (Q2Q167 whole entry): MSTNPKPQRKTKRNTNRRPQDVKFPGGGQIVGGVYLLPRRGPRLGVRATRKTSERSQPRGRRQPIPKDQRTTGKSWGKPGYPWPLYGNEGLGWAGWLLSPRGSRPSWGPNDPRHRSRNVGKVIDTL
Nonstructural protein 1, sequence (Q194T2 whole entry): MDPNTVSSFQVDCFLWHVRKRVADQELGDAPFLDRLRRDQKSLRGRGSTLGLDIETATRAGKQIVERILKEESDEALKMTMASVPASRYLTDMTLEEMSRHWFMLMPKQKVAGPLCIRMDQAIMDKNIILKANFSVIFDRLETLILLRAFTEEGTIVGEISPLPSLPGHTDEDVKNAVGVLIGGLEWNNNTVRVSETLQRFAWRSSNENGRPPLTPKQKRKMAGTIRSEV
X-box-binding protein 1, sequence (P17861 whole entry): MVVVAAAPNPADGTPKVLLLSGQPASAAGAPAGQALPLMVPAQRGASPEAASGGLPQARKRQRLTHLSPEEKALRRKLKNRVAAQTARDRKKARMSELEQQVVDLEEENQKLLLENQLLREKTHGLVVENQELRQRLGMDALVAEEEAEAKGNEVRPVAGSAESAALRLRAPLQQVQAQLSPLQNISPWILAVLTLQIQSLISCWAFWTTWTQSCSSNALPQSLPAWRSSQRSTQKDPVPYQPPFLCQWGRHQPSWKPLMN

Cc1cc(O)c(NC(=S)NC(=O)c2ccc(-c3ccc(Cl)cc3)o2)cc1C
EC50 [1]: 959 nM (active)
EC50 (Streptokinase A): > 150 µM (not active)
EC50 (Streptococcus): 12.2 µM (active)
Absolute IC50 (XBP1) (X-box-binding protein 1): 10 µM

O=C1c2c(O)ccc(O)c2C(=O)c2c(NCCNCCO)ccc(NCCNCCO)c21 [MITOXANTRONE]
CC50 [2]: < 380 nM (active)
IC50 (Nonstructural protein 1): 2.05 µM (active)
AC50 [3]: 1.25 µM (active)
CC50 [4]: 6.34 µM (active)
IC50 [5]: 14.5 µM (active)
AC50 [6]: < 244 nM (active)
AC50 [7]: 2.34 µM (active)
IC50 [8]: > 122 µM (inactive)

N#Cc1c(N)n(C2OC(CO)C(O)C2O)c2ncnc(N)c12 (configuration not stated)
AC50 [9]: 8.58 µM (active)
AC50 [3]: 0.12 µM (active)
AC50 [10]: 609 nM (active)
AC50 [11]: < 260 nM (active)
AC50 [12]: 822 nM (active)
AC50 (Paired box protein Pax-8): < 260 nM (active)
AC50 [13]: 663 nM (active)
AC50 [14]: 2.86 µM (active)

CC(=O)c1ccc(NC(=O)c2ccc3nc(-c4ccco4)c(-c4ccco4)nc3c2)cc1
IC50 (Genome polyprotein): > 49.8 µM (not active)
IC50 [15]: 83.5 µM (not active)
IC50 (Bcl-2-like protein 10): 14.6 µM (active)
IC50 (NS3): 5.88 µM (active)
IC50 [16]: 1.24 µM (active)
IC50 [17]: 998 nM (active) and 805 nM (active)
IC50 [18]: > 64 µM (inactive)
